Read-outs that look alike come from different tables or passages of the source.
Target: human TrkA (Homo sapiens (Human), UniProt P04629)
Assay: Human TrkA inhibition assay (Test Example 2)
Format: biochemical
Summary of the method: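 Recombinant TrkA (1 nmol/L) was preincubated 15 min at room temperature with compound in HEPES/MgCl2/DTT buffer, then reacted with FL-peptide 27 (1.5 μmol/L) and ATP (500 μmol/L) for 120 min at 37 °C. After EDTA stop, substrate phosphorylation was read by microfluidic mobility shift. IC50 came from logistic regression over 3-fold dilution series.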

[1] = Table 154, human TrkA inhibition, read-out: IC50
[2] = Table 156, human TrkA inhibition, read-out: IC50
[3] = Table 153, human TrkA inhibition, read-out: IC50
[4] = Table 155, human TrkA inhibition, read-out: IC50
[5] = Table 152, human TrkA inhibition, read-out: IC50_nM
[6] = Table 157, human TrkA inhibition, read-out: IC50
[7] = human TrkA 1 nmol/L, ATP 500 μmol/L, 120 min at 37° C., read-out: IC50 values (TrkA phosphorylation inhibition)

Chain of human TrkA (P04629 440-796): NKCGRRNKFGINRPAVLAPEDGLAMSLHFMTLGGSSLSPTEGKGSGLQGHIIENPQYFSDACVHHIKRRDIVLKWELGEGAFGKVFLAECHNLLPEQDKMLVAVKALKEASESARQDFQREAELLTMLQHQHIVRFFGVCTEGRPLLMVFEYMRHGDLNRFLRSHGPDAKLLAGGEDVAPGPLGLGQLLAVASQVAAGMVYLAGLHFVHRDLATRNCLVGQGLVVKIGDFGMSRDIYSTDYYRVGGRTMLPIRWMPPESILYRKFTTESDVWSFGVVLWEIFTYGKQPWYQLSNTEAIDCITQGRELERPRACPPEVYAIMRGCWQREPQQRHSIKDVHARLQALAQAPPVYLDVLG

COCC[C@@H]1C[C@@H](NC(=O)Nc2c(C)c(-c3cnc4c(c3)c(=O)n(C)n4C)nn2-c2ccccc2)[C@H](c2ccc(F)c(F)c2)O1 (racemic) [Compound I-215]
IC50 [1]: < 100 nM

COCCN1C[C@@H](NC(=O)Nc2c(C)c(-c3cnc4c(ccc(=O)n4C)c3)nn2-c2ccccc2)[C@H](c2ccnc(F)c2)O1 (racemic) [Compound I-246]
IC50 [1]: < 100 nM

CCOc1nn(-c2ccccc2)c(NC(=O)N[C@@H]2CN(CC)O[C@H]2c2ccc(F)cc2)c1C (racemic) [Compound I-541]
IC50 [2]: < 100 nM

COCCN1C[C@@H](NC(=O)Nc2c(C)c(-c3cnc4c(c3)ncn4C)nn2-c2ccccc2)[C@H](c2ccnc(F)c2)O1 (racemic) [Compound I-164]
IC50 [3]: < 100 nM

COCCN1C[C@@H](NC(=O)Nc2c(C)c(-c3ccc4nccn4c3)nn2-c2ccccc2)[C@H](c2ccnc(F)c2)O1 (racemic) [Compound I-470]
IC50 [4]: < 100 nM

COCCN1C[C@@H](NC(=O)Nc2c(C)c(-c3cnc(OC)c(C(=O)NC4CCS(=O)(=O)CC4)c3)nn2-c2ccccc2)[C@H](c2ccnc(F)c2)O1 (racemic) [Compound I-112]
IC50 [3]: < 100 nM

CCN1C[C@@H](NC(=O)Nc2c(C)c(-c3cnc(OC)nc3)nn2-c2ccccc2)[C@H](c2ccc(F)c(F)c2)O1 (racemic) [Compound I-405]
IC50 [4]: < 100 nM

COCCN1C[C@@H](NC(=O)Nc2c(C)c(-c3cnc(C)nc3)nn2-c2ccccc2)[C@H](c2cnc(F)c(F)c2)O1 (racemic) [Compound I-45]
IC50 [3]: < 100 nM

COCCN1C[C@@H](NC(=O)Nc2c(C)c(-c3cnc(OC)c(C(N)=O)c3)nn2-c2ccc(F)cc2)[C@H](c2ccnc(F)c2)O1 (racemic) [Compound I-238]
IC50 [1]: < 100 nM

CNC(=O)Cn1cnc2cc(-c3nn(-c4ccccc4)c(NC(=O)N[C@@H]4CN(CCOC)O[C@H]4c4ccnc(F)c4)c3C)cnc21 (racemic) [Compound I-401]
IC50 [4]: < 100 nM

COCC[C@H]1C[C@H](NC(=O)Nc2c(C)c(C3=CCN(C(=O)CO)CC3)nn2-c2ccccc2)[C@@H](c2ccc(F)c(F)c2)O1 [Compound I-58]
IC50 [3]: 100 to 1000 nM

COCCC1C[C@@H](NC(=O)Nc2c(C)c(C3=CCNCC3)nn2-c2ccccc2)[C@H](c2ccccc2)O1 (some centres unmarked) [Compound I-21]
IC50 [5]: < 100 nM

COCCN1C[C@@H](NC(=O)Nc2c(C)c(-c3cnc(N4CC[C@@H](OC)C4)nc3)nn2-c2ccccc2)[C@H](c2ccnc(F)c2)O1 [Compound I-585]
IC50 [6]: < 100 nM

COCCN1C[C@@H](NC(=O)Nc2c(C)c(-c3ccc(N4CC(OC)C4)nc3)nn2-c2ccccc2)[C@H](c2ccc(F)c(F)c2)O1 [Compound I-558]
IC50 [2]: < 100 nM

COCCN1C[C@@H](NC(=O)Nc2c(C)c(-c3cnc(C)nc3)nn2-c2ccccc2)[C@H](c2ccc(F)cc2)O1 (racemic) [Compound I-117]
IC50 [3]: < 100 nM

COCC[C@@H]1C[C@@H](NC(=O)Nc2c(C)c(-c3cnc4c(c3)c(=O)n(C)n4C)nn2-c2ccccc2)[C@H](c2ccnc(F)c2)O1 [Compound I-330]
IC50 [4]: < 100 nM

CNC(=O)c1ncc(-c2nn(-c3ccccc3)c(NC(=O)N[C@@H]3CN(CCOC)O[C@H]3c3ccnc(F)c3)c2C)cc1CF (racemic) [Compound I-437]
IC50 [4]: < 100 nM

Cc1c(-c2cnc3c(cnn3C)c2)nn(-c2ccccc2)c1NC(=O)N[C@@H]1CN(Cc2cn[nH]c2)O[C@H]1c1ccc(F)c(F)c1 (racemic) [Compound I-204]
IC50 [1]: 100 to 1000 nM

COCCN1C[C@@H](NC(=O)Nc2c(C)c(-c3ccc(OC)cc3)nn2-c2ccccc2)[C@H](c2ccnc(F)c2)O1 (racemic) [Compound I-554]
IC50 [2]: < 100 nM

CCN1C[C@@H](NC(=O)Nc2c(C)c(-c3ccc4nccn4c3)nn2-c2ccccc2)[C@H](c2ccc(F)c(F)c2)O1 (racemic) [Compound I-624]
IC50 [6]: < 100 nM

COCCN1C[C@@H](NC(=O)Nc2c(C)c(-c3cnc(OC)c(C(=O)NC4CCS(=O)(=O)CC4)c3)nn2-c2ccccc2)[C@H](c2cnc(F)c(F)c2)O1 (racemic) [Compound I-103]
IC50 [3]: < 100 nM

COCCN1C[C@@H](NC(=O)Nc2c(C)c(-c3cnc(OC)c(C(N)=O)c3)nn2-c2ccccc2)[C@H](c2cnc(F)c(F)c2)O1 [Compound I-180]
IC50 [1]: < 100 nM

COCCN1C[C@@H](NC(=O)Nc2c(C)c(-c3cnc4c(c3)CCO4)nn2-c2ccccc2)[C@H](c2ccnc(F)c2)O1 (racemic) [Compound I-530]
IC50 [2]: < 100 nM

COCCN1C[C@@H](NC(=O)Nc2c(C)c(-c3cnn(C)c3)nn2C2CCC2)[C@H](c2ccc(F)c(F)c2)O1 (racemic) [Compound I-146]
IC50 [7]: 330 nM

COCCN1C[C@@H](NC(=O)Nc2c(C)c(-c3cnc(N4CC[C@H](N(C)C)C4)nc3)nn2-c2ccccc2)[C@H](c2ccnc(F)c2)O1 [Compound I-586]
IC50 [6]: < 100 nM

CCCCN1C[C@@H](NC(=O)Nc2c(C)c(-c3cnc(OC)nc3)nn2-c2ccccc2)[C@H](c2ccc(F)c(F)c2)O1 (racemic) [Compound I-677]
IC50 [6]: < 100 nM

COCCN1C[C@@H](NC(=O)Nc2c(C)c(-c3cnc(OCC(F)F)nc3)nn2-c2ccccc2)[C@H](c2ccnc(F)c2)O1 (racemic) [Compound I-436]
IC50 [7]: 4 nM

COCC[C@@H]1C[C@@H](NC(=O)Nc2c(C)c(-c3cnn(C)c3)nn2-c2ccccc2)[C@H](c2ccc(F)c(F)c2)O1 [Compound I-25]
IC50 [7]: 2.9 nM

CCN1C[C@@H](NC(=O)Nc2c(C)c(OCCCN(C)C)nn2-c2ccccc2)[C@H](c2ccc(F)c(F)c2)O1 (racemic) [Compound I-610]
IC50 [6]: < 100 nM

COc1ncc(-c2nn(-c3ccccc3)c(NC(=O)N[C@@H]3CN(C(C)C)O[C@H]3c3ccc(F)c(F)c3)c2C)cn1 (racemic) [Compound I-527]
IC50 [2]: < 100 nM

CNC(=O)c1cc(-c2nn(-c3ccccc3)c(NC(=O)N[C@@H]3CN(CCOC)O[C@H]3c3ccnc(F)c3)c2C)cnc1OC [Compound I-191]
IC50 [1]: < 100 nM

COCCN1C[C@@H](NC(=O)Nc2c(C)c(OCC3CN(C)CCO3)nn2-c2ccccc2)[C@H](c2ccnc(F)c2)O1 (some centres unmarked) [Compound I-505]
IC50 [4]: < 100 nM

COCCN1C[C@@H](NC(=O)Nc2c(C)c(-c3cnc(N(C)CCCN(C)C)nc3)nn2-c2ccccc2)[C@H](c2ccnc(F)c2)O1 (racemic) [Compound I-589]
IC50 [6]: < 100 nM

COCCN1C[C@@H](NC(=O)Nc2c(C)c(-c3ccnc(CO)c3)nn2-c2ccccc2)[C@H](c2ccc(F)c(F)c2)O1 [Compound I-617]
IC50 [6]: < 100 nM

COCCN1C[C@@H](NC(=O)Nc2c(C)c(-c3ccc(C(=O)OC(C)(C)C)cc3)nn2-c2ccccc2)[C@H](c2ccc(F)c(F)c2)O1 (racemic) [Compound I-33]
IC50 [5]: < 100 nM

COCCN1C[C@@H](NC(=O)Nc2c(C)c(-c3cnc(N4CCCC4)nc3)nn2-c2ccccc2)[C@H](c2ccnc(F)c2)O1 (racemic) [Compound I-378]
IC50 [4]: < 100 nM

COCCN1C[C@@H](NC(=O)Nc2c(C)c(-c3cnc4c(cnn4C)c3)nn2-c2ccccc2)[C@H](c2ccnc(F)c2)O1 [Compound I-65]
IC50 [7]: 0.92 nM

CNC(=O)c1cc(-c2nn(-c3ccccc3)c(NC(=O)N[C@@H]3C[C@@H](CCOC)O[C@H]3c3ccnc(F)c3)c2C)cnc1OC [Compound I-319]
IC50 [7]: 1.2 nM

COCCN1C[C@@H](NC(=O)Nc2c(C)c(-c3cnc4c(c3)c(N=S(C)(C)=O)nn4C)nn2-c2ccccc2)[C@H](c2ccc(F)c(F)c2)O1 [Compound I-298]
IC50 [7]: 0.6 nM

COCCN1C[C@@H](NC(=O)Nc2c(C)c(-c3cnc(OC)nc3)nn2-c2ccccc2)[C@H](c2cnc(F)c(F)c2)O1 [Compound I-211]
IC50 [7]: 1.5 nM

CCOc1nn(-c2ccccc2)c(NC(=O)N[C@@H]2CN(CCOC)O[C@H]2c2ccnc(F)c2)c1C (racemic) [Compound I-523]
IC50 [2]: < 100 nM

COCCN1C[C@@H](NC(=O)Nc2c(C)c(-c3cnn(C)c3)nn2-c2ccccc2)[C@H](c2ccc(F)c(F)c2)N1 (racemic) [Compound I-10]
IC50 [7]: 170 nM

COCCN1C[C@@H](NC(=O)Nc2c(C)c(-c3cnc4cnn(C)c4c3)nn2-c2ccccc2)[C@H](c2ccnc(F)c2)O1 (racemic) [Compound I-63]
IC50 [3]: < 100 nM

Cc1c(-c2cccnc2)nn(-c2ccccc2)c1NC(=O)N[C@@H]1CN(CC(F)F)O[C@H]1c1ccc(F)c(F)c1 (racemic) [Compound I-629]
IC50 [6]: < 100 nM

COCCN1C[C@@H](NC(=O)Nc2c(C)c(N3CCN(C)C(=O)C3)nn2-c2ccccc2)[C@H](c2ccc(F)c(F)c2)O1 [Compound I-344]
IC50 [7]: 0.97 nM

CCN1C[C@@H](NC(=O)Nc2c(C)c(OCC(=O)NCCN(C)C)nn2-c2ccccc2)[C@H](c2ccc(F)c(F)c2)O1 (racemic) [Compound I-650]
IC50 [6]: 100 to 1000 nM

COCCN1C[C@@H](NC(=O)Nc2c(C)c(-c3cnc(N4CCC(N(C)C)CC4)nc3)nn2-c2ccccc2)[C@H](c2ccnc(F)c2)O1 (racemic) [Compound I-532]
IC50 [2]: < 100 nM

COCCC1C[C@@H](NC(=O)Nc2c(C)c(C3=CCN(C(=O)OC(C)(C)C)CC3)nn2-c2ccccc2)[C@H](c2ccccc2)O1 (some centres unmarked) [Compound I-20]
IC50 [5]: < 100 nM

COCCN1C[C@@H](NC(=O)Nc2c(C)c(OCc3ccncc3)nn2-c2ccccc2)[C@H](c2ccnc(F)c2)O1 (racemic) [Compound I-456]
IC50 [4]: < 100 nM

CNC(=O)c1cc(-c2nn(-c3ccccc3)c(NC(=O)N[C@@H]3CN(CCOC)O[C@H]3c3ccc(F)c(F)c3)c2C)ccn1 [Compound I-595]
IC50 [6]: < 100 nM

CNC(=O)c1cc(-c2nn(-c3ccccc3)c(NC(=O)N[C@@H]3CN(Cc4ccco4)O[C@H]3c3ccc(F)c(F)c3)c2C)cn(C)c1=O (racemic) [Compound I-149]
IC50 [3]: < 100 nM

COCCN1C[C@@H](NC(=O)Nc2c(C)c(-c3cnc4cccnc4c3)nn2-c2ccccc2)[C@H](c2ccc(F)c(F)c2)O1 (racemic) [Compound I-152]
IC50 [3]: < 100 nM

COCCN1C[C@@H](NC(=O)Nc2c(C)c(-c3ccn4c(C)nnc4c3)nn2-c2ccccc2)[C@H](c2ccc(F)cc2)O1 (racemic) [Compound I-284]
IC50 [1]: < 100 nM

— patent publication US10640495B2, “Heterocycle derivatives having TrkA inhibitory activity” (Shionogi & Co., Ltd., priority 2015, dated 2020)
